Several values for one entry are separate records, joined by “and”; a condition that tells them apart may be missing. Identical values can stand only once.
Experiments:
[1] = Pharmacokinetic study after single oral administration to dogs; type: in vivo
Source text: (§1) The validated method was applied to pharmacokinetic studies of DA-7010 in mice, rats, and dogs. The protocols for the animal study were approved by the Department of Laboratory Animals, Institutional Animal Care and Use Committee (IACUC), on the Sungsim Campus of the Catholic University of Korea (approval no. 2014-022) or by IACUC of Biotoxtech (Cheongju, South Korea) (approval no. 140765). Male ICR mice and Sprague-Dawley rats (~8 weeks old) were purchased from Samtaco Bio (Osan, South Korea). Male beagle dogs (~10 months old), which are products from Beijing Marshall Biotechnology (Beijing, China), were used for this study. The accommodation and handling procedures for the animals were similar to those previously reported. Prior to dosing, the animals were fasted for 15 h and allowed to drink water freely. DA-7010 hydrochloride was administered in the pharmacokinetic study, and the dose of DA-7010 described below is based on the free base form of DA-7010.
For the oral administration of DA-7010 in dogs, 3 mg/kg DA-7010 was loaded in a gelatin capsule (size 12, Torpac Inc., Fairfield, NJ, USA) without other excipients. Approximately 2 mL of blood was collected via the cephalic vein using a heparinized (100 IU/mL) 23 G syringe at pre-dose and 15, 30, 45, 60, 120, 240, 360, 480, 720, and 1440 min after the administration of the drug. The collection and storage of each plasma sample (25 μL) and extra plasma sample were performed using the same procedure described above.
(§2) The pharmacokinetic parameters were calculated using noncompartmental analyses (WinNonlin; Pharsight Corporation, Mountain View, CA, USA). The AUC0-∞ was calculated using the trapezoidal rule-extrapolation method. The Cmax and Tmax were read directly from the experimental data.

[2] = Stability of DA-7010 in rat plasma under various storage conditions; type: in vitro ADME; conditions: n = 3, mean ± SD
Description: (§3) The stability of DA-7010 in the plasma from the mice, rats, and dogs was evaluated by analyzing 3 replicates of low, medium, and high QC samples under various storage conditions: the bench-top short-term stability (at room temperature for 8 h), post-preparative stability (prepared samples kept in LC vials at 4 °C for 24 h), freeze–thaw stability (3 freeze/thaw (−20 °C/room temperature) cycles), and long-term freezing stability (−20 °C for 1 month). The analyte was determined to be stable when the estimated recovery (determined concentration/nominal concentration × 100%) was in the range of 85–115% and the RSD was < 15%.

[3] = Pharmacokinetic study after single oral administration to mice; type: in vivo; conditions: male, ICR, mouse, plasma
Source text: as §1
DA-7010 (dissolved in distilled water) at a dose of 3 mg (in 10 mL) per kilogram was administered orally to the mouse groups A and B (n = 6 each) using gastric gavage. Blood samples (~ 50 μL) were collected into separate heparinized capillary tubes from the retro-orbital plexuses of mice that were under light anesthesia, which was achieved by isoflurane inhalation at 5, 30, 120, and 480 min for group A and 15, 60, 240, and 600 min for group B following the oral administration of DA-7010. The collected sample was immediately centrifuged, and a 25 μL plasma sample was stored at −20 °C until it was used for the LC-MS/MS analyses of DA-7010.
as §2

[4] = system: Gram-negative bacteria (except for Pseudomonas aeruginosa); set-up: method as in earlier work; conditions: cited from earlier work
[5] = Stability of DA-7010 in dog plasma under various storage conditions; type: in vitro ADME; conditions: n = 3, mean ± SD
Description: as §3

[6] = Stability of DA-7010 in mouse plasma under various storage conditions; type: in vitro ADME; conditions: n = 3, mean ± SD
Description: as §3

[7] = Stability of DA-7010 in plasma, summary over all species; type: in vitro ADME, mice, rats, and dogs
Description: as §3

[8] = Pharmacokinetic study after single oral administration to rats; type: in vivo; conditions: male, Sprague-Dawley, plasma, rat
Source text: as §1
For the rat, the carotid artery was cannulated for serial blood sampling. DA-7010 (dissolved in distilled water) at a dose of 3 mg (in 2 mL) per kilogram was administered orally to the rats (n = 7) using gastric gavage. Blood samples (~50 μL) were collected at 0, 5, 10, 20, 30, 60, 120, 240, 360, 480, and 720 min via the carotid artery following the oral administration of the drug. The cannula was flushed immediately after each blood sampling to prevent blood clotting using a 0.3 mL heparinized 0.9% NaCl-injectable solution (20 units/mL). The same procedure described above was used for the collection and storage of the plasma samples.
as §2

[9] = system: carbapenem-resistant Acinetobacter baumannii; set-up: method as in earlier work; conditions: mice systemically infected with carbapenem-resistant Acinetobacter baumannii; cited from earlier work
[10] = male, beagle, dog, plasma, dogs (n = 4), single oral dose 3 mg/kg in gelatin capsule, mean ± SD
[11] = 3 freeze/thaw (–20 °C/room temperature) cycles, nominal 30 ng/mL
[12] = 3 freeze/thaw (–20 °C/room temperature) cycles, nominal 400 ng/mL
[13] = 3 freeze/thaw (–20 °C/room temperature) cycles, nominal 8000 ng/mL
[14] = long term (‒20 °C over 1 month), nominal 30 ng/mL
[15] = long term (‒20 °C over 1 month), nominal 400 ng/mL
[16] = long term (‒20 °C over 1 month), nominal 8000 ng/mL
[17] = prepared plasma samples in LC vials, post-preparative (prepared samples 4 °C 24 h), nominal 30 ng/mL
[18] = prepared plasma samples in LC vials, post-preparative (prepared samples 4 °C 24 h), nominal 400 ng/mL
[19] = prepared plasma samples in LC vials, post-preparative (prepared samples 4 °C 24 h), nominal 8000 ng/mL
[20] = short term (room temperature 8 h), nominal 30 ng/mL
[21] = short term (room temperature 8 h), nominal 400 ng/mL
[22] = short term (room temperature 8 h), nominal 8000 ng/mL
[23] = mice, single oral dose 3 mg/kg, from mean concentration–time profile
[24] = representative sample 4 h after oral 3 mg/kg, read-out: Plasma concentration of DA-7010
[25] = rats (n = 7), single oral dose 3 mg/kg, mean ± SD

C[C@@H]1COB2O[C@H](CN)c3cccc(c32)O1 [DA-7010, ((2S,7R)-7-methyl-7,8-dihydro-2H-1,6,9-trioxa-9a-borabenzo[cd]azulen-2-yl)methanamine]
AUC(0-inf) [1, 10]: 21800 ng·h/mL | Cmax [1, 10]: 1820 ± 90.1 ng/mL | half-life ([1]; male, beagle, dog, plasma, dogs (n = 4), single oral dose 3 mg/kg in gelatin capsule, mean ± SD, read-out: Terminal half-life): 452 ± 33.8 min | Tmax ([1]; male, beagle, dog, plasma, dogs (n = 4), single oral dose 3 mg/kg in gelatin capsule, median (range)): 1 h | concentration at 4 h ([1]; male, beagle, plasma, dog, representative sample 4 h after oral 3 mg/kg, read-out: Plasma concentration of DA-7010): 1950 ng/mL | Systemic exposure in dogs relative to mice or rats ([1]; single oral dose 3 mg/kg): approximately four times higher | recovery at 30 ng/mL [2, 11]: 107 ± 5.92% | recovery at 400 ng/mL [2, 12]: 94.8 ± 6.2% | recovery at 8000 ng/mL [2, 13]: 100 ± 0.407% | recovery at 1 month, 30 ng/mL [2, 14]: 85.5 ± 0.618% | recovery at 1 month, 400 ng/mL [2, 15]: 95.2 ± 3.3% | recovery at 1 month, 8000 ng/mL [2, 16]: 107 ± 2.67% | recovery at 24 h, 30 ng/mL [2, 17]: 95.5 ± 3.65% | recovery at 24 h, 400 ng/mL [2, 18]: 101 ± 1.33% | recovery at 24 h, 8000 ng/mL [2, 19]: 111 ± 4.06% | recovery at 8 h, 30 ng/mL [2, 20]: 110 ± 4.64% | recovery at 8 h, 400 ng/mL [2, 21]: 97.9 ± 0.394% | recovery at 8 h, 8000 ng/mL [2, 22]: 104 ± 0.647% | Cmax [3, 23]: 1280 ng/mL | Tmax [3, 23]: 15 min | AUC(0-inf) ([3]; mice, single oral dose 3 mg/kg, from mean concentration–time profile (n = 6 per point)): 3920 ng·h/mL | half-life ([3]; mice, single oral dose 3 mg/kg, from mean concentration–time profile, read-out: Terminal half-life): 125 min | concentration at 4 h [3, 24]: 334 ng/mL | minimum inhibitory concentration (MIC) [4]: 0.25 to 2 µg/mL | recovery at 30 ng/mL [5, 11]: 110 ± 3.32% | recovery at 400 ng/mL [5, 12]: 107 ± 2.01% | recovery at 8000 ng/mL [5, 13]: 114 ± 0.0718% | recovery at 1 month, 30 ng/mL [5, 14]: 113 ± 0.5% | recovery at 1 month, 400 ng/mL [5, 15]: 97.3 ± 1.22% | recovery at 1 month, 8000 ng/mL [5, 16]: 111 ± 3.13% | recovery at 24 h, 30 ng/mL [5, 17]: 110 ± 5.48% | recovery at 24 h, 400 ng/mL [5, 18]: 108 ± 1.72% | recovery at 24 h, 8000 ng/mL [5, 19]: 116 ± 2.34% | recovery at 8 h, 30 ng/mL [5, 20]: 107 ± 3.08% | recovery at 8 h, 400 ng/mL [5, 21]: 92.9 ± 1.62% | recovery at 8 h, 8000 ng/mL [5, 22]: 108 ± 1.22% | recovery at 30 ng/mL [6, 11]: 109 ± 6.63% | recovery at 400 ng/mL [6, 12]: 91.2 ± 2.22% | recovery at 8000 ng/mL [6, 13]: 87.7 ± 2.58% | recovery at 1 month, 30 ng/mL [6, 14]: 106 ± 1.54% | recovery at 1 month, 400 ng/mL [6, 15]: 95.5 ± 3.04% | recovery at 1 month, 8000 ng/mL [6, 16]: 88.5 ± 1.77% | recovery at 24 h, 30 ng/mL [6, 17]: 106 ± 5.14% | recovery at 24 h, 400 ng/mL [6, 18]: 92.7 ± 2.58% | recovery at 24 h, 8000 ng/mL [6, 19]: 89.9 ± 7.84% | recovery at 8 h, 30 ng/mL [6, 20]: 109 ± 4.97% | recovery at 8 h, 400 ng/mL [6, 21]: 97.5 ± 6.48% | recovery at 8 h, 8000 ng/mL [6, 22]: 89 ± 2.24% | Stability, mean recoveries ([7]; 8 h at room temperature, 24 h in LC vial at 4 °C after preparation, 1 month at –20 °C): > 85.5% | Stability, mean recoveries ([7]; after three freeze/thaw (–20 °C/room temperature) cycles): > 87.7% | concentration at 4 h [8, 24]: 648 ng/mL | AUC(0-inf) [8, 25]: 5320 ng·h/mL | Cmax [8, 25]: 1330 ± 427 ng/mL | half-life ([8]; rats (n = 7), single oral dose 3 mg/kg, mean ± SD, read-out: Terminal half-life): 173 ± 48.6 min | Tmax ([8]; rats (n = 7), single oral dose 3 mg/kg, median (range)): 20 min | ED50 (effective oral dose that protected 50% of mice) [9]: 3 mg/kg and 1.9 to 3 mg/kg

Source: paper PMC7922803, “Development and Validation of an LC-MS/MS Method for Quantification of the Novel Antibacterial Candidate DA-7010 in Plasma and Application to a Preclinical Pharmacokinetic Study” (Pharmaceuticals, 2021)
